Data reported in patent publication US20250368645A1, “BETA CARBOLINE ANALOGUES AS SELECTIVE AND BIASED KAPPA OPIOID RECEPTORS AGONISTS FOR TREATING VARIOUS ASSOCIATED PATHOPHYSIOLOGICAL CONDITIONS” (COUNCIL OF SCIENTIFIC AND INDUSTRIAL RESEARCH, priority 2022, published 2025).

Columns and labels:
Format in all cases: cell-based
human KOR = human KOR (Homo sapiens, UniProt P41145); assay: GloSensor assay, Gi-mediated cAMP inhibition in HEK-293T cells transfected with human KOR; conditions: given as Log IC50 (negative values); agonist activity, inhibition of FSK-stimulated cAMP; read-out: GloSensor Assay (Log IC50) KOR (converted)
Sequence of human KOR (P41145 whole entry): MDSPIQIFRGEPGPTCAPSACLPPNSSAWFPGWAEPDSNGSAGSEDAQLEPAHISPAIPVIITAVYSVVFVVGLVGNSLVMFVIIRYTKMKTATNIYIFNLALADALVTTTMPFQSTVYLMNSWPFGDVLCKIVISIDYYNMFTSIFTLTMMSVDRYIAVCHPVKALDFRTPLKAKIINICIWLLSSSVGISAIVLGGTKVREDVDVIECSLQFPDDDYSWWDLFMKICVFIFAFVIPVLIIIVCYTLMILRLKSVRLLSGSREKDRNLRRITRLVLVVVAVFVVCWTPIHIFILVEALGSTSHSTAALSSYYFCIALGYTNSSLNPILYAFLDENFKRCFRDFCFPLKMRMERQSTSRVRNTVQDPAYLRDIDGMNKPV

MOR = MOR (Homo sapiens, UniProt P35372); assay: GloSensor assay at MOR; conditions: given as Log IC50 (negative values)
Sequence of MOR (P35372 whole entry): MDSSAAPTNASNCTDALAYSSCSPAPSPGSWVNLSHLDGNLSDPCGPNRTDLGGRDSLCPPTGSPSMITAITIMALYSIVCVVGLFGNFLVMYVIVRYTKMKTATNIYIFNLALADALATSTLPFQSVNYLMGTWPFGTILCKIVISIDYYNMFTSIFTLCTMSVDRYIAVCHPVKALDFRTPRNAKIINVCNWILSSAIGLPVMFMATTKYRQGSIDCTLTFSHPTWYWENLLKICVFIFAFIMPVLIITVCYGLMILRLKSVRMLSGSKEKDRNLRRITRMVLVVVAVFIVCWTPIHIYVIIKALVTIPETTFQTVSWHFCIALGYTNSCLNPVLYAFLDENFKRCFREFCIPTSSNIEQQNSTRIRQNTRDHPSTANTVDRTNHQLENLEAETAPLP

DOR = DOR (Homo sapiens, UniProt P41143); assay: GloSensor assay at DOR; conditions: given as Log IC50 (negative values)
Sequence of DOR (P41143 whole entry): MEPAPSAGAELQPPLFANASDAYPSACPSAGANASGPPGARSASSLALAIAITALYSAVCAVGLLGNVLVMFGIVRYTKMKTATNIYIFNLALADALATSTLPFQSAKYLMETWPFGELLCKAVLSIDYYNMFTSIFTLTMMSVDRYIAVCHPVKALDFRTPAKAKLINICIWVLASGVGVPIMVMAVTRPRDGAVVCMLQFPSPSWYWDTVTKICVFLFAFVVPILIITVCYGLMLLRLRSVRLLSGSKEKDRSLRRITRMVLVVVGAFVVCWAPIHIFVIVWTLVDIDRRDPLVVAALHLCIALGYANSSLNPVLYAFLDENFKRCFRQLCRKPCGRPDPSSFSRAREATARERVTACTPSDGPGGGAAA

IC50 (human KOR) | IC50 (MOR) | IC50 (DOR) | Compound
> 10 µM | > 10 µM | > 10 µM | Brc1cccc(-n2c[n+]3ccc4c5ccccc5[nH]c4c3c2-c2ccccc2)c1 [8aae, 2-(3-Bromophenyl)-1-phenyl-2,11-dihydrolmidazo[1′,5′:1,2]pyrido[3,4-b]indol-4-ium chloride]
> 10 µM | > 10 µM | > 10 µM | Fc1ccc(-c2c3c4[nH]c5ccccc5c4cc[n+]3cn2-c2ccc(Cl)cc2)cc1 [8agc, 2-(4-Chlorophenyl)-1-(4-fluorophenyl)-2,11-dihydrolmidazo[1′,5′:1,2]pyrido[3,4-b]indol-4-ium chloride]
> 10 µM | > 10 µM | > 10 µM | Fc1ccc(F)c(Cn2c[n+]3ccc4c5ccccc5[nH]c4c3c2-c2ccc(Br)cc2)c1 [9aaf]
0.2 µM | > 10 µM | 3.16 µM | Brc1ccccc1-c1c2c3[nH]c4ccccc4c3cc[n+]2cn1-c1ccccc1 [8aca, 1-(2-Bromophenyl)-2-phenyl-2,11-dihydroimidazo[1′,5′:1,2]pyrido[3,4-b]indol-4-ium chloride]
1.82 µM | > 10 µM | > 10 µM | Fc1ccc(-n2c[n+]3ccc4c5ccccc5[nH]c4c3c2-c2cccc(Cl)c2)cc1 [8afd, 1-(3-Chlorophenyl)-2-(4-fluorophenyl)-2,11-dihydroimidazo[1′,5′:1,2]pyrido[3,4-b]indol-4-ium chloride]
> 10 µM | > 10 µM | > 10 µM | Brc1ccc(-c2c3c4[nH]c5ccccc5c4cc[n+]3cn2Cc2ccccc2)cc1 [9aaa, 2-Benzyl-1-(4-bromophenyl)-2,11-dihydroimidazo[1′,5′:1,2]pyrido[3,4-b]indol-4-ium chloride]
> 10 µM | > 10 µM | > 10 µM | Brc1ccc(-c2c3c4[nH]c5ccccc5c4cc[n+]3cn2-c2ccc(Br)cc2)cc1 [8abb, 1,2-Bis(4-bromophenyl)-2,11-dihydroimidazo[1′,5′:1,2]pyrido[3,4-b]indol-4-ium chloride]
0.269 µM | > 10 µM | > 10 µM | Fc1ccc(-n2c[n+]3ccc4c5ccccc5[nH]c4c3c2-c2ccccc2)cc1 [8aad, 2-(4-Fluorophenyl)-1-phenyl-2,11-dihydroimidazo[1′,5′:1,2]pyrido[3,4-b]indol-4-ium chloride]
0.0631 µM | > 10 µM | > 10 µM | Fc1cccc(-n2c[n+]3ccc4c5ccccc5[nH]c4c3c2-c2ccccc2Br)c1 [8aci, 1-(2-Bromophenyl)-2-(3-fluorophenyl)-2,11-dihydroimidazo[1′,5′:1,2]pyrido[3,4-b]indol-4-ium]
0.0631 µM | > 10 µM | > 10 µM | Clc1cccc(-n2c[n+]3ccc4c5ccccc5[nH]c4c3c2-c2ccccc2Br)c1 [8acf, 1-(2-Bromophenyl)-2-(3-chlorophenyl)-2,11-dihydroimidazo[1′,5′:1,2]pyrido[3,4-b]indol-4-ium chloride]
> 10 µM | > 10 µM | > 10 µM | COC(=O)c1cc2c3ccccc3[nH]c2c2c(-c3ccc(Br)cc3)n(-c3ccc(Cl)cc3)c[n+]12 [8bbc, 1-(4-Bromophenyl)-2-(4-chlorophenyl)-5-(methoxycarbonyl)-2,11-dihydroimidazo[1′,5′:1,2]pyrido[3,4-b]indol-4-iumchloride]
> 10 µM | > 10 µM | > 10 µM | FC(F)(F)Oc1ccc(Cn2c[n+]3ccc4c5ccccc5[nH]c4c3c2-c2ccc(Cl)cc2)cc1 [9abh, 1-(4-Chlorophenyl)-2-(4-(trifluoromethoxy)benzyl)-2,11-dihydroimidazo[1′,5′:1,2]pyrido[3,4-b]indol-4-ium chloride]
> 10 µM | > 10 µM | > 10 µM | Clc1ccc(-c2c3c4[nH]c5ccccc5c4cc[n+]3cn2-c2cccc(Cl)c2)cc1 [8adf, 2-(3-Chlorophenyl)-1-(4-chlorophenyl)-2,11-dihydroimidazo[1′,5′:1,2]pyrido[3,4-b]indol-4-ium chloride]
> 10 µM | > 10 µM | > 10 µM | Cn1c2ccccc2c2cc[n+]3cn(-c4ccc(Cl)cc4)c(-c4ccc(Br)cc4)c3c21 [8dbc, 1-(4-Bromophenyl)-2-(4-chlorophenyl)-11-methyl-2,11 dihydroimidazo[1′,5′:1,2]pyrido[3,4-b]indol-4-iumchloride]
> 10 µM | > 10 µM | > 10 µM | Fc1ccc(-c2c3c4[nH]c5ccccc5c4cc[n+]3cn2-c2ccccc2)cc1 [8aga, 1-(4-Fluorophenyl)-2-phenyl-2,11-dihydroimidazo[1′,5′:1,2]pyrido[3,4-b]indol-4-ium chloride]
> 10 µM | > 10 µM | > 10 µM | Cn1c2ccccc2c2cc[n+]3cn(-c4ccc(Cl)cc4)c(-c4ccc(Cl)cc4)c3c21 [8ddc, 1,2-Bis(4-chlorophenyl)-11-methyl-2,11-dihydroimidazo[1′,5′:1,2]pyrido[3,4-b]indol-4-iumchloride]

IC50 (human KOR) | IC50 (MOR) | IC50 (DOR) | Compound
0.166 µM | > 10 µM | > 10 µM | COc1ccc(Cn2c[n+]3ccc4c5ccccc5[nH]c4c3c2-c2ccc(Br)cc2)cc1OC [9aag, 1-(4-Bromophenyl)-2-(3,4-dimethoxybenzyl)-2,11-dihydroimidazo[1′,5′:1,2]pyrido[3,4-b]indol-4-ium chloride]
> 10 µM | > 10 µM | > 10 µM | Fc1cccc(-n2c[n+]3ccc4c5ccccc5[nH]c4c3c2-c2ccc(Br)cc2)c1 [8abi, 1-(4-Bromophenyl)-2-(3-fluorophenyl)-2,11-dihydroimidazo[1′,5′:1,2]pyrido[3,4-b]indol-4-ium chloride]
> 10 µM | > 10 µM | > 10 µM | Fc1ccc(-n2c[n+]3c4ccccc4c4c5ccccc5[nH]c4c3c2-c2ccccc2)cc1 [12ad, 2-(4-Fluorophenyl)-1-phenyl-2,13-dihydroimidazo[1,5-a]indolo[2,3-c]quinolin-4-ium chloride]
> 10 µM | > 10 µM | > 10 µM | Clc1ccccc1-c1c2c3[nH]c4ccccc4c3cc[n+]2cn1-c1ccccc1 [8aea, 1-(2-Chlorophenyl)-2-phenyl-2,11-dihydroimidazo[1′,5′:1,2]pyrido[3,4-b]indol-4-ium chloride]
0.2 µM | > 10 µM | > 10 µM | Fc1ccc(-n2c[n+]3ccc4c5ccccc5[nH]c4c3c2-c2cccc(F)c2)cc1 [8aid, 1-(3-Fluorophenyl)-2-(4-fluorophenyl)-2,11-dihydroimidazo[1′,5′:1,2]pyrido[3,4-b]indol-4-ium]
> 10 µM | > 10 µM | > 10 µM | COC(=O)c1cc2c3ccccc3[nH]c2c2c(-c3ccc(Br)cc3)n(-c3ccc(F)cc3)c[n+]12 [8bbd, 1-(4-Bromophenyl)-2-(4-fluorophenyl)-5-(methoxycarbonyl)-2,11-dihydroimidazo[1′,5′:1,2]pyrido[3,4-b]indol-4-iumchloride]
> 10 µM | > 10 µM | > 10 µM | CC(C)(C)c1ccc(Cn2c[n+]3ccc4c5ccccc5[nH]c4c3c2-c2ccc(Br)cc2)cc1 [9aac, 1-(4-Bromophenyl)-2-(4-(tert-butyl)benzyl)-2,11-dihydroimidazo[1′,5′:1,2]pyrido[3,4-b]indol-4-ium chloride]
> 10 µM | > 10 µM | > 10 µM | Cc1ccc(-c2c3c4[nH]c5ccccc5c4c4ccccc4[n+]3cn2-c2ccc(F)cc2)cc1 [12bc, 2-(4-Fluorophenyl)-1-(p-tolyl)-2,13-dihydrolmidazo[1,5-a]indolo[2,3-c]quinolin-4-ium chloride]
0.209 µM | > 10 µM | > 10 µM | Fc1ccc(-n2c[n+]3ccc4c5ccccc5[nH]c4c3c2-c2cccs2)cc1 [8and, 2-(4-Fluorophenyl)-1-(thiophen-2-yl)-2,11-dihydroimidazo[1′,5′:1,2]pyrido[3,4-b]indol-4-ium chloride]
> 10 µM | > 10 µM | > 10 µM | Fc1ccc(-n2c[n+]3ccc4c5ccccc5[nH]c4c3c2-c2ccc(Br)cc2)cc1F [8abm, 1-(4-Bromophenyl)-2-(3,4-difluorophenyl)-2,11-dihydroimidazo[1′,5′:1,2]pyrido[3,4-b]indol-4-ium chloride]
0.0794 µM | > 10 µM | > 10 µM | Fc1ccccc1-n1c[n+]2ccc3c4ccccc4[nH]c3c2c1-c1ccc(Br)cc1 [8abk, 1-(4-Bromophenyl)-2-(2-fluorophenyl)-2,11-dihydroimidazo[1′,5′:1,2]pyrido[3,4-b]indol-4-ium chloride]
> 10 µM | > 10 µM | > 10 µM | Brc1ccc2[nH]c3c(cc[n+]4cn(-c5ccccc5)c(-c5ccccc5Br)c34)c2c1 [8cca, 8-Bromo-1-(2-bromophenyl)-2-phenyl-2,11-dihydrolmidazo[1′,5′:1,2]pyrido[3,4-b]indol-4-ium chloride]
0.316 µM | > 10 µM | > 10 µM | Clc1ccc(-n2c[n+]3ccc4c5ccccc5[nH]c4c3c2-c2cccc(Cl)c2)cc1 [8afc, 1-(3-Chlorophenyl)-2-(4-chlorophenyl)-2,11-dihydrolmidazo[1′,5′:1,2]pyrido[3,4-b]indol-4-ium chloride]
> 10 µM | > 10 µM | > 10 µM | Clc1ccc(-c2c3c4[nH]c5ccccc5c4c4ccccc4[n+]3cn2-c2ccc(Cl)cc2)cc1 [12dd, 1,2-Bis(4-chlorophenyl)-2,13-dihydroimidazo[1,5-a]indolo[2,3-c]quinolin-4-ium chloride]
> 10 µM | > 10 µM | > 10 µM | Fc1ccc(-n2c[n+]3c4ccccc4c4c5ccccc5[nH]c4c3c2-c2ccc(Br)cc2)cc1 [12cc, 1-4-Bromphenyl)-2-(4-fluorophenyl)-2,13-dihydroimidazo[1,5-a]indolo[2,3-c]quinolin-4-ium chloride]
